In patent US10047104B2, “Bicyclic heterocyclyl derivatives as IRAK4 inhibitors” (Aurigene Discovery Technologies Limited, priority 2014, dated 2018):
Where a name gives a salt, the structure may show the parent alone.

Target: T1, recombinant IRAK-4 kinase (Homo sapiens, UniProt Q9NWZ3)
T1 construct: purchased Millipore, USA
T1 sequence (Q9NWZ3 1-460): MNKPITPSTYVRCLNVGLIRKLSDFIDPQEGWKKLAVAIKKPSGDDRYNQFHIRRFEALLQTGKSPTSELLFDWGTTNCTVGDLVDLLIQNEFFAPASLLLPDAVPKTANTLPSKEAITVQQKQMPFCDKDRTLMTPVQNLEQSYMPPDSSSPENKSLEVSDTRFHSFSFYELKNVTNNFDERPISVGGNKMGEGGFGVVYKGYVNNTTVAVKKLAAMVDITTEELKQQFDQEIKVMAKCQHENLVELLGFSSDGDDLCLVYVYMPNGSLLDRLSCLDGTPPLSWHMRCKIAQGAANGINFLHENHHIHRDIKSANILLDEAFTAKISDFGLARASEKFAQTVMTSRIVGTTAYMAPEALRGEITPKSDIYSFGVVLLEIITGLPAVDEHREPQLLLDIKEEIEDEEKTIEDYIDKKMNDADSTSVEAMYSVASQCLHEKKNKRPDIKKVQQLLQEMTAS
Test: IRAK-4 Biochemical Assay (TR-FRET)
Conditions: 5 ng IRAK-4 kinase, 100 nM Biotin Histone H3, 20 μM ATP, 30 minutes pre-incubation, read-out: IC50 values for IRAK4 activity
Method: Compounds were tested for their potential to inhibit IRAK-4 enzyme in a TR-FRET assay using recombinant IRAK-4 kinase from Millipore, USA. The assay buffer was 50 mM Tris-HCl pH 7.5, 20 mM MgCl2, 1 mM EGTA, 2 mM DTT, 3 mM MnCl2 and 0.01% Tween20. 5 ng of IRAK-4 kinase was used for the assay. After pre-incubation of enzyme with test compound for 30 minutes at room temperature, a substrate mix containing 100 nM Biotin Histone H3 (Millipore, USA) and 20 μM ATP (Sigma, USA) was added and the reaction was incubated for 30 minutes. Post incubation, the reaction was stopped by the addition of stop mix containing 40 mM EDTA, 1 nM of Europium-Anti-Phospho-Histone H3 (Ser10) antibody (Perkin Elmer, USA) and 20 nM Sure Light Allophycocyanin-Streptavidin (Perkin Elmer, USA).

SMILES | IC50 [nM]
Cc1ncccc1-c1nc(C(=O)Nc2cc3sc(N4CCCCC4)nc3nc2N2CCCCC2)co1 [Example 52, N-(2,5-di(piperidin-1-yl)thiazolo[4,5-b]pyridin-6-yl)-2-(2-methylpyridin-3-yl)oxazole-4-carboxamide hydrochloride] | < 50
Cc1cc(-c2nc(C(=O)Nc3cc4sc(N5C[C@@H](C)O[C@@H](C)C5)nc4nc3N3CCCCC3)co2)ccn1 [Example 53, N-(2-((2S,6R)-2,6-dimethylmorpholino)-5-(piperidin-1-yl)thiazolo[4,5-b]pyridin-6-yl)-2-(2-methylpyridin-4-yl)oxazole-4-carboxamide] | < 50
Cc1ncccc1-c1nc(C(=O)Nc2cc3sc(N4CCOCC4)nc3nc2N2CCCCC2)co1 [Example 54, 2-(2-methylpyridin-3-yl)-N-(2-morpholino-5-(piperidin-1-yl)thiazolo[4,5-b]pyridin-6-yl)oxazole-4-carboxamide] | < 50
O=C(Nc1cc2sc(N3CCOCC3)nc2nc1N1CCCCC1)c1coc(-c2cccnc2O)n1 [Example 55, 2-(2-hydroxypyridin-3-yl)-N-(2-morpholino-5-(piperidin-1-yl)thiazolo[4,5-b]pyridin-6-yl)oxazole-4-carboxamide] | < 50
COc1cc(-c2nc(C(=O)Nc3cc4sc(N5CCCCC5)nc4nc3N3CCCCC3)co2)ccn1 [Example 56, N-(2,5-di(piperidin-1-yl)thiazolo[4,5-b]pyridin-6-yl)-2-(2-methoxypyridin-4-yl)oxazole-4-carboxamide] | < 50
COc1ccc(-c2nc(C(=O)Nc3cc4sc(N5CCOCC5)nc4nc3N3CCCCC3)co2)cn1 [Example 57, 2-(6-methoxypyridin-3-yl)-N-(2-morpholino-5-(piperidin-1-yl)thiazolo[4,5-b]pyridin-6-yl)oxazole-4-carboxamide] | < 50
COc1cc(-c2nc(C(=O)Nc3cc4sc(N5CCOCC5)nc4nc3N3CCCCC3)co2)ccn1 [Example 58, 2-(2-methoxypyridin-4-yl)-N-(2-morpholino-5-(piperidin-1-yl)thiazolo[4,5-b]pyridin-6-yl)oxazole-4-carboxamide] | < 50
Cc1cc(-c2nc(C(=O)Nc3cc4sc(N5CCOCC5)nc4nc3N3CCC[C@H](F)C3)co2)ccn1 [Example 59, (S)—N-(5-(3-fluoropiperidin-1-yl)-2-morpholinothiazolo[4,5-b]pyridin-6-yl)-2-(2-methylpyridin-4-yl)oxazole-4-carboxamide] | < 50
Cc1ccc(-c2nc(C(=O)Nc3cc4sc(N5CCOCC5)nc4nc3N3CCCCC3)co2)cn1 [Example 60, 2-(6-methylpyridin-3-yl)-N-(2-morpholino-5-(piperidin-1-yl)thiazolo[4,5-b]pyridin-6-yl)oxazole-4-carboxamide] | < 50
Cc1cnccc1-c1nc(C(=O)Nc2cc3sc(N4CCOCC4)nc3nc2N2CCCCC2)co1 [Example 61, 2-(3-methylpyridin-4-yl)-N-(2-morpholino-5-(piperidin-1-yl)thiazolo[4,5-b]pyridin-6-yl)oxazole-4-carboxamide] | < 50
N[C@H]1CCN(c2cccc(C(=O)Nc3cc4sc(N5CCOCC5)nc4nc3N3CCCCC3)n2)C1 [Example 62, (S)-6-(3-aminopyrrolidin-1-yl)-N-(2-morpholino-5-(piperidin-1-yl)thiazolo[4,5-b]pyridin-6-yl)picolinamide] | < 50
O=C(Nc1cc2sc(N3CCOCC3)nc2nc1N1CCCCC1)c1cccc(N2CC[C@H](O)C2)n1 [Example 63, (S)-6-(3-hydroxypyrrolidin-1-yl)-N-(2-morpholino-5-(piperidin-1-yl)thiazolo[4,5-b]pyridin-6-yl)picolinamide] | < 50
N[C@H]1CCN(c2cccc(C(=O)Nc3cc4sc(N5CCCCC5)nc4nc3N3CCCCC3)n2)C1 [Example 64, (S)-6-(3-aminopyrrolidin-1-yl)-N-(2,5-di(piperidin-1-yl)thiazolo[4,5-b]pyridin-6-yl)picolinamide] | < 50
O=C(Nc1cc2sc(N3CCCCC3)nc2nc1N1CCCCC1)c1cccc(N2CC[C@H](O)C2)n1 [Example 65, (S)—N-(2,5-di(piperidin-1-yl)thiazolo[4,5-b]pyridin-6-yl)-6-(3-hydroxypyrrolidin-1-yl)picolinamide] | < 50
N[C@H]1CCN(c2nc(C(=O)Nc3cc4sc(N5CCOCC5)nc4nc3N3CCCCC3)co2)C1 [Example 66, (S)-2-(3-aminopyrrolidin-1-yl)-N-(2-morpholino-5-(piperidin-1-yl)thiazolo[4,5-b]pyridin-6-yl)oxazole-4-carboxamide] | < 50
Cc1cc(-c2nc(C(=O)Nc3cc4sc(N5CCOCC5)nc4nc3N3CC[C@H](N)C3)co2)ccn1 [Example 67, (S)—N-(5-(3-aminopyrrolidin-1-yl)-2-morpholinothiazolo[4,5-b]pyridin-6-yl)-2-(2-methylpyridin-4-yl)oxazole-4-carboxamide] | < 50
N[C@H]1CCN(c2nc(C(=O)Nc3cc4sc(N5CCOCC5)nc4nc3C3CC3)co2)C1 [Example 68, (S)-2-(3-aminopyrrolidin-1-yl)-N-(5-cyclopropyl-2-morpholinothiazolo[4,5-b]pyridin-6-yl)oxazole-4-carboxamide] | 50 to 100
Cc1cc(-c2nc(C(=O)Nc3cc4sc(N5CCOCC5)nc4nc3C3CC3)co2)ccn1 [Example 69, N-(5-cyclopropyl-2-morpholinothiazolo[4,5-b]pyridin-6-yl)-2-(2-methylpyridin-4-yl)oxazole-4-carboxamide] | < 50
O=C(Nc1cc2sc(N3CCOCC3)nc2nc1N1CCCCC1)c1coc(N2CC[C@H](O)C2)n1 [Example 70, (S)-2-(3-hydroxypyrrolidin-1-yl)-N-(2-morpholino-5-(piperidin-1-yl)thiazolo[4,5-b]pyridin-6-yl)oxazole-4-carboxamide] | < 50
Cc1cc(-c2nc(C(=O)Nc3cc4sc(N5CCOCC5)nc4nc3N3CC[C@H](O)C3)co2)ccn1 [Example 71, (S)—N-(5-(3-hydroxypyrrolidin-1-yl)-2-morpholinothiazolo[4,5-b]pyridin-6-yl)-2-(2-methylpyridin-4-yl)oxazole-4-carboxamide] | < 50
O=C(Nc1cc2sc(N3CCOCC3)nc2nc1C1CC1)c1cccc(N2CC[C@H](O)C2)n1 [Example 72, (S)—N-(5-cyclopropyl-2-morpholinothiazolo[4,5-b]pyridin-6-yl)-6-(3-hydroxypyrrolidin-1-yl)picolinamide] | < 50
O=C(Nc1cc2sc(N3CCOCC3)nc2nc1C1CC1)c1coc(N2CC[C@H](O)C2)n1 [Example 73, (S)—N-(5-cyclopropyl-2-morpholinothiazolo[4,5-b]pyridin-6-yl)-2-(3-hydroxypyrrolidin-1-yl)oxazole-4-carboxamide] | < 50
C[C@H](O)Cn1cc(-c2cccc(C(=O)Nc3cc4sc(N5CCOCC5)nc4nc3C3CC3)n2)cn1 [Example 74, (S)—N-(5-cyclopropyl-2-morpholinothiazolo[4,5-b]pyridin-6-yl)-6-(1-(2-hydroxypropyl)-1H-pyrazol-4-yl)picolinamide] | < 50
C[C@H](O)Cn1cc(-c2nc(C(=O)Nc3cc4sc(N5CCOCC5)nc4nc3C3CC3)co2)cn1 [Example 75, (S)—N-(5-cyclopropyl-2-morpholinothiazolo[4,5-b]pyridin-6-yl)-2-(1-(2-hydroxypropyl)-1H-pyrazol-4-yl)oxazole-4-carboxamide] | < 50
COc1ccc(-c2nc(C(=O)Nc3cc4sc(N5CCOCC5)nc4nc3N3CCC(O)C3)co2)cn1 (centres unmarked) [Example 76, N-(5-(3-hydroxypyrrolidin-1-yl)-2-morpholinothiazolo[4,5-b]pyridin-6-yl)-2-(6-methoxypyridin-3-yl)oxazole-4-carboxamide] | < 50
COc1ccc(-c2nc(C(=O)Nc3cc4sc(N5CCOCC5)nc4nc3N3CC[C@H](O)C3)co2)cn1 [Example 77, (S)—N-(5-(3-hydroxypyrrolidin-1-yl)-2-morpholinothiazolo[4,5-b]pyridin-6-yl)-2-(6-methoxypyridin-3-yl)oxazole-4-carboxamide] | < 50
COc1ccc(-c2nc(C(=O)Nc3cc4sc(N5CCOCC5)nc4nc3N3CC[C@@H](O)C3)co2)cn1 [Example 78, (R)—N-(5-(3-hydroxypyrrolidin-1-yl)-2-morpholinothiazolo[4,5-b]pyridin-6-yl)-2-(6-methoxypyridin-3-yl)oxazole-4-carboxamide] | < 50
O=C(Nc1cc2sc(N3CCOCC3)nc2nc1N1CCC1)c1cccc(N2CC[C@H](O)C2)n1 [Example 79, (S)—N-(5-(azetidin-1-yl)-2-morpholinothiazolo[4,5-b]pyridin-6-yl)-6-(3-hydroxypyrrolidin-1-yl)picolinamide] | 50 to 100
Cc1cc(-c2nc(C(=O)Nc3cc4sc(N5CCOCC5)nc4nc3N3CC(O)C3)co2)ccn1 [Example 80, N-(5-(3-hydroxyazetidin-1-yl)-2-morpholinothiazolo[4,5-b]pyridin-6-yl)-2-(2-methylpyridin-4-yl)oxazole-4-carboxamide] | < 50
